Laboratory results: US7323460B2, “N-(substituted benzyl)-8-hydroxy-1,6-naphthyridine-7-carboxamides useful as HIV integrase inhibitors” (Merck & Co., Inc., priority 2002, dated 2008)

Tests used:
[1] = test system: HIV mutants that are resistant to other integrase inhibitors; assay: Antiviral activity against HIV mutants resistant to other integrase inhibitors; assay type: cell-based
[2] = test system: HIV; assay: Antiviral potency in the presence of human serum proteins; assay type: cell-based; details: relative to closely related N-benzyl-8-hydroxy-1,6-naphthyridine carboxamide integrase inhibitors without ortho polar substituent
[3] = target: T1, HIV integrase (recombinant integrase) (Human immunodeficiency virus type 1 group M subtype B, UniProt P04585); assay: HIV integrase assay: strand transfer catalyzed by recombinant integrase; assay type: biochemical
T1 construct: HIV Integrase Assay: Strand Transfer Catalyzed by Recombinant Integrase
Method: HIV Integrase Assay: Strand Transfer Catalyzed by Recombinant Integrase
Assays for the strand transfer activity of integrase were conducted in accordance with the method described in Example 193 of WO 02/30930 for recombinant integrase.
Further description on conducting the assay using preassembled complexes is found in Wolfe, A. L. et al., J. Virol. 1996, 70: 1424-1432, Hazuda et al., J. Virol. 1997, 71: 7005-7011; Hazuda et al., Drug Design and Discovery 1997, 15: 17-24; and Hazuda et al., Science 2000, 287: 646-650.

SMILES	antiviral activity against several HIV mutants resistant to other integrase inhibitors [1]	antiviral potency in the presence of human serum proteins [2]	IC50 [3] [nM]
CNC(=O)c1cc(F)ccc1CNC(=O)c1nc(N2CCCCS2(=O)=O)c2cccnc2c1O [Compound A, N-{4-fluoro-2-[(methylamino)carbonyl]benzyl}-5-(1,1-dioxido-1,2-thiazinan-2-yl)-8-hydroxy-1,6-naphthyridine-7-carboxamide]	retention of significant antiviral activity	improved	
CNC(=O)c1cc(F)ccc1CNC(=O)c1nc(N2CCCCS2(=O)=O)c2cccnc2c1O [Example 3, Sodium 5-(1,1-dioxido-1,2-thiazinan-2-yl)-7-[({4-fluoro-2-[(methylamino)carbonyl]-benzyl}amino)carbonyl]-1,6-naphthyridin-8-olate]			< 500
